# Patent US20120289602A1, “PHARMACEUTICAL COMPOSITION FOR TREATING OR PREVENTING BURN INJURIES” (priority 2009, published 2012)
# Legend:
# Type in all cases: in vivo
# [1] = tested on: contact burn injury on the back of rats; test: Measurement of lactate dehydrogenase in serum through blood chemistry after burn injury; conditions: 10 mg/5 ml/kg intravenously twice a day, FIG. 1
# Procedure: (§1) To confirm the therapeutic effect of 2-hydroxy-TTBA against burn injury, contact burn injury is induced for 30 seconds on the back of rats (on the both side of skin) using a brass comb preheated for 3 minutes in the boiling water (maintaining at 100° C.). After 5 minutes, 2-hydroxy-TTBA 10 mg/5 ml/kg were administered to intravenously for 5 minutes. Since then, twice-a-day administration (at an interval of 10˜12 hours) was sustained for 7 days on the same conditions. The same amount of saline without the compound was administered to the vehicle-treated group in the same manner. Groups of burn experiments were the same as below table 1.
# The Measurement of Lactate Dehydrogenase in Serum Through Blood Chemistry
# Lactate dehydrogenase (LDH) is an enzyme distributed to almost all the tissues and catalyzing reversible reactions between pyruvic acid and lactic acid.
# It is known that serum LDH level is elevated when tissues and cells are destroyed. Thus, the amount of LDH was measured in serum samples from each group except hemolyzed samples that may interfere with test results.
# [2] = tested on: contact burn injury on the back of rats; test: Observation of skin appearance on the back after burn injury (zone of stasis); conditions: skin on the back 7 days after burn injury, FIG. 2
# Procedure: as §1
# FIG. 2 is photographs that observed skin on the back 7 days after burn injury. Full thickness burns were induced in the both sides of back of experimental rats using a preheated brass comb with 4 rectangular shapes of size 10×20 mm. At 2 hours after induction, 4 pale-colored or darkish zones of coagulation (or zones of tissue necrosis) and 3 zones of stasis (or zones of tissue injury) appeared on the both sides of back. […]
# Therefore, to evaluate the efficacy in this experiment, among the zone of stasis, the remaining 4 regions (a rectangular area indicated the dotted lines) except regions toward the head close to a medication vest among 6 areas appeared in a single rat were analyzed.
# [3] = tested on: contact burn injury on the back of rats; test: Contact burn injury in rats: animals that died within 7 days; conditions: within 7 days after burn injury, 10 mg/5 ml/kg intravenously, twice a day for 7 days, 7 animals in group
# Procedure: as §1
# When analyzing the results, number of animals of the normal group for comparison, number of animals in each group, and the number of animals that died within 7 days after the burn injury were shown in above table 1. Two rats in the burn control group died at 5 and 7 days, respectively, after burn injury, but all of another experimental group survived.
# [4] = tested on: contact burn injury on the back of rats; test: Histology of zone of stasis after burn injury (hematoxylin-eosin, cresyl violet, Masson's trichrom staining)
# Procedure: as §1
# FIG. 3 is the result comparing the state of the epithelial layer through hematoxylin-eosin staining of tissues according to the groups. […] Some cases that hyperplasia of epidermis thicker than normal epithelial layers occurred could be also observed.
# Eschar formation and frequency of wound epidermis formation was measured by analyzing total 28 tissue areas per group (4 zones of stasis per rat, 7 rats per group). As a result, the wound switching frequency of approximately 93% occurred in the burn control group was decreased to about 18% and 4%, respectively, in the veheicle-treated and 2-hydroxy-TTBA-treated groups. Also, the rate of wound epidermis formation was increased by approximately 32% and 72%, respectively, in comparison with the burn control group. The result was shown in the below table 2 (histological appearance: Eschar Formation and frequency of wound epidermis formation).
# FIG. 4 was the photograph that observed the state of tissues of full-thickness skin through hematoxylin-eosin staining via 10× microscope.
# FIG. 5 is the photograph observed the live cells in the zone of stasis by cresyl violet staining via 10× microscope. In the burn control group and the vehicle-treated group, follicles were rarely observed and large amounts of inflammatory cells were observed throughout the full-thickness skin.
# FIG. 6 is the photograph that observed collagen of skin tissues and muscle fibers in the zone of stasis by Masson's trichrom staining. In the normal group, blue-stained collagen was evenly distributed throughout the dermis, and muscle fibers were stained red. In the burn control group, collagen was deposited irregularly below eschar, the level of staining was weak relative to the normal group. Almost of the muscle fibers were damaged and were not stained. In the vehicle-treated group, the amount of collagen was most abundantly observed relative to the other groups, even to a very high level compared to the normal control. In addition, the muscle fibers with damage were not stained, and significant amount of bleeding and infiltration of inflammatory cells were accompanied.
# [5] = 28 tissue areas per group (4 zones of stasis per rat, 7 rats), 7 days after burn
# [6] = zone of stasis, 7 days after burn, FIG. 4
compound,measurement,setting,value
"O=C(O)c1cc(NCc2c(F)c(F)c(C(F)(F)F)c(F)c2F)ccc1O [2-hydroxy-TTBA, 2-Hydroxy-5-(2,3,5,6-tetrafluoro-4-trifluoromethyl-benzylamino)-benzoic acid]",LDH value in serum compared to burn control group,[1],reduced significantly
same,Skin condition by the naked eye,[2],restored to such a good skin condition that hair growth can be observed by the naked eye
same,Formation of eschar such as scab (skin appearance),[2]; zone of stasis,occurred rarely
same,Number of dead animals,[3],0
same,"rate of wound epidermis formation, increase in comparison with the burn control group",[4]; 28 tissue areas per group,~72%
same,Eschar formation (%),[4]; [5],3.571%
same,Wound epidermis formation (%),[4]; [5],71.429%
same,Eschar formation frequency,"[4]; 28 tissue areas per group, approximately 93% in burn control group",~4%
same,"State of the epithelial layer, hematoxylin-eosin staining",[4]; FIG. 3,wound epidermis formation was in progress
same,"Inflammatory cells in the zone of stasis, cresyl violet staining",[4]; FIG. 5,relatively few inflammatory cells were observed
same,"Live cells in the zone of stasis, cresyl violet staining",[4]; FIG. 5,live follicles and epithelia were observed
same,"Infiltration of inflammatory cells in full-thickness skin, hematoxylin-eosin staining",[4]; [6],considerably inhibited except in the areas of muscle cells and subcutaneous tissues
same,"Protection of skin structures in full-thickness skin, hematoxylin-eosin staining",[4]; [6],"not only a wound epidermis formation but also protective effects even in the hair follicles, sebaceous glands and muscle layers appeared"
